# Measurements: article PMC3198786, “LL37 and Cationic Peptides Enhance TLR3 Signaling by Viral Double-stranded RNAs” (PLoS ONE, 2011)
# How the values were obtained:
# TLR3 signaling [1] = test: poly(I:C)-induced IL6 production by BEAS2B cells (ELISA); type: cell-based, human; details: for Fold induction above poly(I:C) induced IL6 production (BEAS2B): BEAS2B cells, 0.13 µg/ml poly(I:C) ± peptides (5 µM), IL6 ELISA, number of experiments in parentheses, duplicate or triplicate per experiment
# Protocol: (§1) BEAS2B cells were plated at 1.5×10^4 cells/well in 96-well plates. 24 h after plating, the media was replaced with 50 µl of media containing the indicated treatments. Unless otherwise noted, poly(I:C) and LPS were added to the medium of cells to final concentrations of 0.13 µg/ml and 1 µg/ml, respectively. To activate RIG-I, 10 nM shR9 with a 5′ triphosphate was transfected into cells using Lipofectamine 2000 (Invitrogen, Carlsbad, CA). Supernatants were collected after 18-24 h and assayed for IL6 or IL8 secretion using an ELISA kit according to the manufacturer's protocol (BD Biosciences, San Diego, CA). The IL6 or IL8 level was calculated based on a standard curve fitted using a sigmoidal variable slope dose-response using software from GraphPad Prism (La Jolla, CA) and normalized to […] per well. For PBMCs, an initial 150,000 cells per well were suspended in 100 µl of RPMI medium (Invitrogen) containing 10% FBS and incubated overnight at 37°C, 5% CO2. The cells were treated with poly(I:C) at 5 µg/ml in the absence or presence of LL37 (5.6 µM) for 20–24 h. […] The supernatants were collected and frozen until analysis. Cytokine levels for IP10, IL1α and MCP1 were measured using a Milliplex assay kit (Millipore, Billerica, MA).
# BEAS2B cells = test: WST-1 viability of BEAS2B cells; type: cell-based, human
# Protocol: Supplementary file pone.0026632.s002.tif: Figure S2 Effects of LL37 concentration on viability of BEAS2B cells±poly(I:C). Cell viability was assessed using the WST-1 assay (Clontech, Mountain View CA). After treatments, cells were incubated with WST-1 substrate for 4 h and absorbance was measured at 450 nm with 630 nm as reference. The readout performed in the absence of LL37 (i.e. Control) is defined as 100%. […] The graph is representative of five experiments. […] (TIF) Click here for additional data file.
# [2] = system: human peripheral blood mononuclear cells (PBMCs); test: Cytokine production in human PBMCs (Milliplex); type: cell-based; details: peptide 5.6 µM
# Protocol: as §1
# TLR3 = TLR3 ISRE luciferase reporter assay in 293T/TLR3 cells; type: cell-based, human; details: for Fold induction above Reovirus dsRNA (293T/TLR3 reporter): 293T/TLR3 cells, reovirus genomic RNA 2 µg/ml, peptides 2 µM, ISRE luciferase reporter
# Protocol: Luciferase reporter assays were performed according to the protocol of [36]. Briefly, HEK 293T cells were plated in white-walled 96-well plates at 4.4×10^4 cells/well and transfected with plasmids pUNO-huTLR3 (0.5 ng/well), pISRE-Luc (30 ng/well) and phRL-TK (5 ng/well) using Lipofectamine 2000. The cells were grown for 24 h to allow expression from the plasmids. […] After 18–24 h of incubation, luciferase activity was determined using the Dual-Glo Luciferase assay system (Promega).
# TLR3 signaling [3] = test: Viral RNA-induced IL6 production by BEAS2B cells; type: cell-based, human; details: Sc37 2.2 µM, n>4
# Protocol: Poly(I:C) (Amersham Biosciences or GE Healthcare) was reconstituted in phosphate buffered saline (PBS; Invitrogen, Carlsbad, CA). Size-selected Poly(I:C) of 50–125 bps were generated as described previously. Fluorescently-labeled Cy5-poly(I:C) was made as described in [43]. LPS was from Sigma-Aldrich Inc. DsRNAs from Reovirus were extracted from purified virions (a kind gift from Dr. Danthi, Indiana University). […] The ssRNAs were then adjusted to a 1∶1 molar ratio in PBS and heated to 95°C for five minutes followed by slow cooling to room temperature to allow the strands to anneal to form S4 dsRNA. Plant endornavirus BPEV dsRNA was the kind gift of R. Valverde (Louisana State University, Baton Rouge, LA). Positive-strand ssRNA from hepatitis virus JFH1 was made by in vitro transcription from a cDNA of JFH-1 [63]. Plasmids encoding the wild-type TLR3, TLR4 and RIG-I were from InvivoGen (San Diego, CA). […]
# BEAS2B cells were plated at 1.5×10^4 cells/well in 96-well plates. […] The IL6 or IL8 level was calculated based on a standard curve fitted using a sigmoidal variable slope dose-response using software from GraphPad Prism (La Jolla, CA) and normalized to µg/ml per well. […] Cytokine levels for IP10, IL1α and MCP1 were measured using a Milliplex assay kit (Millipore, Billerica, MA).
# [4] = Negative-stain electron microscopy of particle dimensions; type: physicochemical; details: negative-stain TEM, pH 7.4, linear regression
# Protocol: Poly(I:C) at 50 µg/ml (low molecular weight, Invitrogen) was incubated alone or with LL37 or Sc37 (each at 10 µM) in Tris-buffered saline, pH 7.4 at 4°C for 15 min. Sample of 10 µl was placed on top of a glow-discharged 400 mesh carbon-coated copper grid (EMS). After one min incubation at RT, the drop was removed by absorption onto filter paper. The grids containing the samples were then stained with 2% uranium acetate for 20 s. Excess stain was removed and the grids were air-dried for 15 min. Micrographs of the grids were taken with JEOL transmission microscope at 80 kV, using 40,000x magnification. The micrographs were collected and measurement of length and width of particles were calculated using EMAN software as described by. Data points for each treatment were fitted using linear regression and the slope of each line was calculated using GraphPad Prism software.
# TLR4 signaling = test: LPS-induced IL6 production by BEAS2B cells (ELISA); type: cell-based, human; details: LPS 1 µg/ml, T3/T4 0.6–10 µM, Tat and Arg(9) 10 µM
# Protocol: as §1
compound,measurement,setting,value
O=C(O[C@@H]1Cc2c(O)cc(O)cc2O[C@@H]1c1cc(O)c(O)c(O)c1)c1cc(O)c(O)c(O)c1 [EGCG],Effect on the Tat peptide's enhancement of IL6 production,"TLR3 signaling [1]; BEAS2B, data not shown",did not affect
CC[C@H](C)[C@H](NC(=O)[C@H](CCCCN)NC(=O)[C@H](CCC(=O)O)NC(=O)[C@H](CCCCN)NC(=O)[C@H](CO)NC(=O)[C@H](CCCCN)NC(=O)[C@H](CCCNC(=N)N)NC(=O)[C@H](Cc1ccccc1)NC(=O)[C@H](Cc1ccccc1)NC(=O)[C@H](CC(=O)O)NC(=O)CNC(=O)[C@H](CC(C)C)NC(=O)[C@@H](N)CC(C)C)C(=O)NCC(=O)N[C@@H](CCCCN)C(=O)N[C@@H](CCC(=O)O)C(=O)N[C@@H](Cc1ccccc1)C(=O)N[C@@H](CCCCN)C(=O)N[C@@H](CCCNC(=N)N)C(=O)N[C@H](C(=O)N[C@H](C(=O)N[C@@H](CCC(N)=O)C(=O)N[C@@H](CCCNC(=N)N)C(=O)N[C@H](C(=O)N[C@@H](CCCCN)C(=O)N[C@@H](CC(=O)O)C(=O)N[C@@H](Cc1ccccc1)C(=O)N[C@@H](CC(C)C)C(=O)N[C@@H](CCCNC(=N)N)C(=O)N[C@@H](CC(N)=O)C(=O)N[C@@H](CC(C)C)C(=O)N[C@H](C(=O)N1CCC[C@H]1C(=O)N[C@@H](CCCNC(=N)N)C(=O)N[C@H](C(=O)N[C@@H](CCC(=O)O)C(=O)N[C@@H](CO)C(=O)O)[C@@H](C)O)C(C)C)[C@@H](C)CC)C(C)C)[C@@H](C)CC [LL37],Toxicity in the presence of poly(I:C),"BEAS2B cells; BEAS2B, WST-1, LL37 3 µM",did not show significant toxicity
same,Effect on cell viability in the absence of poly(I:C),"BEAS2B cells; BEAS2B, WST-1, LL37 up to 5 µM, representative of five experiments",no effect on cell viability
same,Effect on BEAS2B cell viability,"BEAS2B cells; at or less than 3 µM, by itself or in the presence of poly(I:C), WST-1, n = 5",minimal effects
same,Cytotoxicity judged by morphology of PBMCs,[2]; data not shown,no obvious cytotoxicity
COc1cc2ncnc(Nc3cccc(Cl)c3)c2cc1OC [tyrphostin AG 1478],Effect on IL6 production induced by poly(I:C) or poly(I:C) in combination with LL37,"TLR3 signaling [1]; BEAS2B, unpublished observations",had no effect
LLGNFFRKSKQKIGKQFKRIVQRIKNFFRNLVPRTQS [Sc37],Fold induction above poly(I:C) induced IL6 production (BEAS2B),TLR3 signaling [1],1.05±0.11 (6) fold
same,Enhancement of poly(I:C)-induced IL6 levels compared to poly(I:C) alone,"TLR3 signaling [1]; BEAS2B, peptide 2.2 µM, poly(I:C) 0.13 µg/ml, 20 h, LL37 n = 23, Sc37 n = 7",did not enhance IL6 production
same,Additional increase of reporter levels above that of the Reovirus dsRNAs,"TLR3; 293T/TLR3, peptide 2 µM, Reovirus dsRNA, LL37 n = 8, Sc37 n = 4",did not affect reporter activity
same,Fold induction above Reovirus dsRNA (293T/TLR3 reporter),TLR3,1.0±0.03 (9) fold
same,"Increase of IL1α, MCP1 and IP10 levels with poly(I:C) above poly(I:C) or peptide alone","[2]; poly(I:C) 5 µg/ml, 24 h, n = 3",did not significantly increase
same,Effect on IL6 production by the viral RNAs tested,TLR3 signaling [3],did not increase IL6 production
same,Slope of best fit line of particle lengths and widths,[4],0.8 ± 0.05
"NAKTRRHERRRKLAIER [P22N(14-30), arginine-containing peptide]",Fold induction above poly(I:C) induced IL6 production (BEAS2B),TLR3 signaling [1]; 5 µM,1.0±0 (3) fold
same,Fold induction above poly(I:C) induced IL6 production (BEAS2B),"TLR3 signaling [1]; listed as P22(14-30), 5 µM",did not enhance TLR3 signaling
same,Fold induction above Reovirus dsRNA (293T/TLR3 reporter),TLR3,1.3±0.14 (4) fold
"RQIKIWFQNRRMKWKK [Penetrin, peptide derived from the protein antennapedia; cell-penetrating peptide]",Fold induction above poly(I:C) induced IL6 production (BEAS2B),TLR3 signaling [1],2.9±1.2 (3) fold
same,Fold induction above Reovirus dsRNA (293T/TLR3 reporter),TLR3,1.1±0.05 (4) fold
"RRRRRRRRR [Arg(9), cell-penetrating peptide of nine arginines]",Effect on LPS-induced IL6 production,TLR4 signaling,no effect on LPS signaling
same,Fold induction above Reovirus dsRNA (293T/TLR3 reporter),TLR3,1.5±0.17 (4) fold
TRAQRRAAARGGGVVIAC [Peptide 3],Fold induction above poly(I:C) induced IL6 production (BEAS2B),TLR3 signaling [1],3±0.62 (8) fold
same,Fold induction above Reovirus dsRNA (293T/TLR3 reporter),TLR3,1 fold
"TRAQRRAAARGVQIVYKC [T4, peptide derived from the Brome mosaic virus (BMV) capsid]",Fold induction above poly(I:C) induced IL6 production (BEAS2B),TLR3 signaling [1],5.6±1.4 (6) fold
same,Effect on LPS-induced IL6 production,TLR4 signaling,not affected
same,Fold induction above Reovirus dsRNA (293T/TLR3 reporter),TLR3,1 fold
"TRAQRRAAARRNRACCPGCCS [T3, peptide derived from the Brome mosaic virus (BMV) capsid]",Fold induction above poly(I:C) induced IL6 production (BEAS2B),TLR3 signaling [1],3±0.4 (8) fold
same,Effect on LPS-induced IL6 production,TLR4 signaling,not affected
same,Fold induction above Reovirus dsRNA (293T/TLR3 reporter),TLR3,1.3±0.08 (4) fold
"TSAQSSAAASSNSACCPGCCS [T3Ser, variant of the peptide T3 that had the arginines substituted with serines]",Fold induction above poly(I:C) induced IL6 production (BEAS2B),TLR3 signaling [1]; 5 µM,0.8±0.12 (4) fold
same,Fold induction above poly(I:C) induced IL6 production (BEAS2B),"TLR3 signaling [1]; listed as T3ser, 5 µM",lost the ability to enhance IL6 production
same,Fold induction above Reovirus dsRNA (293T/TLR3 reporter),TLR3,1 fold
"YGRKKRRQRRR [Tat47-57, Tat peptide that is rich in basic residues; cell-penetrating peptide]",Fold induction above poly(I:C) induced IL6 production (BEAS2B),TLR3 signaling [1]; 5 µM,3.7±0.43 (10) fold
same,Fold induction above poly(I:C) induced IL6 production (BEAS2B),"TLR3 signaling [1]; listed as Tat peptide, 5 µM",at least 2.9 fold
same,Effect on LPS-induced IL6 production,TLR4 signaling,no effect on LPS signaling
same,Fold induction above Reovirus dsRNA (293T/TLR3 reporter),TLR3,1.3±0.19 (3) fold
mCRAMP,Enhancement of IL6 production in response to poly(I:C),"TLR3 signaling [1]; BEAS2B, KR18-37 4 µM, mCRAMP 5 µM, poly(I:C) 0.13 µg/ml, 24 h, n = 3",unable to enhance IL6 production
poly(I:C),IL6 levels above basal levels,"TLR3 signaling [1]; BEAS2B, poly(I:C) added to medium, n = 12",15 ± 2.2 fold
same,Slope of best fit line of particle lengths and widths,[4],0.53 ± 0.12
